Assay [1] concerns Caenorhabditis elegans. In words: In vitro inhibition against Caenorhabditis elegans motility for anthelmintic activity was measured. In kind it is functional, organism-based.
In assay [2] the test system is Ovis aries. In words: Evaluated for the anthelmintic activity against Cooperia species in sheep at dose of 2 mg/kg; value ranges from 91-100%. Type of assay: functional.
Assay [3] concerns Ovis aries. In words: Evaluated for the anthelmintic activity against Trichostrongylus colubriformis in sheep at dose of 2 mg/kg; value ranges from 91-100%. Type of assay: functional.
The test system of assay [4] is Ovis aries. Put plainly: Evaluated for the anthelmintic activity against Oesophagostomum columbianum in sheep at dose of 2 mg/kg; value ranges from 51-75%. In kind it is functional.
Assay [5] has as its system Ovis aries. In words: Evaluated for the anthelmintic activity against Haemonchus contortus in sheep at dose of 0.5 mg/kg; value ranges from 91-100%. Type of assay: functional.
The test system of assay [6] is Ovis aries. Put plainly: Evaluated for the anthelmintic activity against Ostertagia circumcincta in sheep at dose of 0.5 mg/kg; value ranges from 91-100%. Type of assay: functional.
Assay [7] deals with Ovis aries. In words: Evaluated for the anthelmintic activity against Haemonchus contortus in sheep at dose of 2 mg/kg; value ranges from 91-100%. Type of assay: functional.
For assay [8], the system named is Ovis aries. Put plainly: Evaluated for the anthelmintic activity against Oesophagostomum columbianum in sheep at dose of 0.5 mg/kg. Type of assay: functional.
In assay [9] the test system is Ovis aries. In words: Evaluated for the anthelmintic activity against Trichostrongylus axei in sheep at dose of 0.5 mg/kg; value ranges from 91-100%. Type of assay: functional.
The subject of assay [10] is Ovis aries. In words: Evaluated for the anthelmintic activity against Trichostrongylus colubriformis in sheep at dose of 0.5 mg/kg; value ranges from 91-100%. In kind it is functional.
Assay [11] relates to Ovis aries. Put plainly: Evaluated for the anthelmintic activity against Cooperia species in sheep at dose of 0.5 mg/kg; value ranges from 91-100%. In kind it is functional.
For assay [12], the system named is Ovis aries. In words: Evaluated for the anthelmintic activity against Ostertagia circumcincta in sheep at dose of 2 mg/kg; value ranges from 91-100%. In kind it is functional.
Assay [13] deals with Ovis aries. Put plainly: Evaluated for the anthelmintic activity against Trichostrongylus axei in sheep at dose of 2 mg/kg; value ranges from 91-100%. Type of assay: functional.

Values after ≈ are worked out from the molar mass of the structure shown.

By IC50 is commonly meant the concentration that gives 50% inhibition. A high value points to lower potency. `CO[C@]1(C)CCN2CC34CC5(C(=O)Nc6c5ccc5c6OC=CC(C)(C)O5)C(C)(C)C3CC21C(=O)N4C` (stereo partly specified) displayed an IC50 in assay [1] of 70 µg/mL (≈ 138 µM).

Consider `CCCCO[C@]1(C)CCN2CC34CC5(C(=O)Nc6c5ccc5c6OC=CC(C)(C)O5)C(C)(C)C3CC21C(=O)N4C` (stereo partly specified), for which, in assay [1], the IC50 was found to be 5 µg/mL (≈ 9.1 µM).

In turn, `CNC(=O)N(C)C(=O)O[C@]1(C)CCN2CC34CC5(C(=O)Nc6c5ccc5c6OC=CC(C)(C)O5)C(C)(C)C3CC21C(=O)N4C` (stereo partly specified) showed an IC50 in assay [1] of 60 µg/mL (≈ 98.7 µM).

In [1], `C#CCO[C@]1(C)CCN2CC34CC5(C(=O)Nc6c5ccc5c6OC=CC(C)(C)O5)C(C)(C)C3CC21C(=O)N4C` (stereo partly specified) yielded an IC50 of 7.5 µg/mL (≈ 14.1 µM). Compared with the last compound, the IC50 is about 8-fold lower.

For `CCO[C@]1(C)CCN2CC34CC5(C(=O)Nc6c5ccc5c6OC=CC(C)(C)O5)C(C)(C)C3CC21C(=O)N4C` (stereo partly specified), the IC50 in assay [1] turned out to be 2 µg/mL (≈ 3.83 µM).

Take `COCCOCO[C@]1(C)CCN2CC34CC5(C(=O)Nc6c5ccc5c6OC=CC(C)(C)O5)C(C)(C)C3CC21C(=O)N4C` (stereo partly specified): half-maximal inhibition in assay [1] (IC50) was put at 20 µg/mL (≈ 34.4 µM).

On to `C=CCO[C@]1(C)CCN2CC34CC5(C(=O)Nc6c5ccc5c6OC=CC(C)(C)O5)C(C)(C)C3CC21C(=O)N4C` (stereo partly specified), for which the Reduction in [2] worked out at 91%; in [3] it was 91%; in [4] it was 51%; in assay [5] it was 91%; in assay [6] it was 91%; in assay [7], 91%. In addition, the Reduction is reported as below 50% in [8]; 91% in [9]; 91% in [10]; 91% in [11]; 91% in assay [12]; 91% in [13]. The compound further yielded an IC50 in assay [1] of 15 µg/mL (≈ 28.1 µM).

Compound `CN1C(=O)C23CC4C1(CN2CC[C@@]3(C)OCc1ccccc1)CC1(C(=O)Nc2c1ccc1c2OC=CC(C)(C)O1)C4(C)C` (stereo partly specified) returned an IC50 in assay [1] of 65 µg/mL (≈ 111 µM).

As for `CN1C(=O)C23CC4C1(CN2CC[C@@]3(C)O[Si](C)(C)C)CC1(C(=O)Nc2c1ccc1c2OC=CC(C)(C)O1)C4(C)C` (stereo partly specified), in [1], the IC50 is 3 µg/mL (≈ 5.3 µM).

The record behind these values is ChEMBL document CHEMBL1151056, “The preparation and utilization of paraherquamide-2-O-methyl imidate in the synthesis of 14-O-substituted paraherquamide derivatives” (Bioorg Med Chem Lett, 1992).
